How the values were obtained:
[1] = system: Puccinia recondita f. sp. tritici; assay: Fungicidal activity against Puccinia recondita f. sp. tritici / wheat / leaf disc preventative (brown rust); format: in vivo; details: foliar, 200 ppm in the applied formulation, wheat leaf segments cv. Kanzler, inoculated 1 day after application, assessed 7 to 9 days after application, compared to untreated, read-out: disease control
Procedure: Leaf disks or leaf segments of various plant species are cut from plants grown in a greenhouse. The cut leaf disks or segments are placed in multiwell plates (24-well format) onto water agar. The leaf disks are sprayed with a test solution before (preventative) or after (curative) inoculation. Compounds to be tested are prepared as DMSO solutions (max. 10 mg/mL) which are diluted to the appropriate concentration with 0.025% Tween20 just before spraying. The inoculated leaf disks or segments are incubated under defined conditions (temperature, relative humidity, light, etc.) according to the respective test system. A single evaluation of disease level is carried out 3 to 14 days after inoculation, depending on the pathosystem. Percent disease control relative to the untreated check leaf disks or segments is then calculated. Wheat leaf segments cv. Kanzler were placed on agar in multiwell plates (24-well format) and sprayed with the formulated test compound diluted in water. The leaf disks were inoculated with a spore suspension of the fungus 1 day after application. The inoculated leaf segments were incubated at 19° C. and 75% relative humidity (rh) under a light regime of 12 hours light/12 hours darkness in a climate cabinet and the activity of a compound was assessed as percent disease control compared to untreated when an appropriate level of disease damage appears in untreated check leaf segments (7 to 9 days after application). The following compounds at 200 ppm in the applied formulation give at least 80% disease control in this test when compared to untreated control leaf disks under the same conditions, which show extensive disease development.

[2] = system: Glomerella lagenarium (Colletotrichum lagenarium); assay: Fungicidal activity against Glomerella lagenarium (Colletotrichum lagenarium) liquid culture / cucumber / preventative (anthracnose); format: cell-based; details: Colletotrichum orbiculare; 20 ppm in the applied formulation; liquid culture in PDB, 24° C.; 3 to 4 days after application; compared to untreated control; read-out: disease control (inhibition of growth measured photometrically)
Procedure: Mycelia fragments or conidia suspensions of a fungus prepared either freshly from liquid cultures of the fungus or from cryogenic storage, are directly mixed into nutrient broth. DMSO solutions of the test compound (max. 10 mg/mL) are diluted with 0.025% Tween20 by a factor of 50 and 10 μL of this solution is pipetted into a microtiter plate (96-well format). The nutrient broth containing the fungal spores/mycelia fragments is then added to give an end concentration of the tested compound. The test plates are incubated in the dark at 24° C. and 96% relative humidity (rh). The inhibition of fungal growth is determined photometrically after 2 to 7 days, depending on the pathosystem, and percent antifungal activity relative to the untreated check is calculated. Conidia of the fungus from cryogenic storage are directly mixed into nutrient broth (PDB—potato dextrose broth). After placing a (DMSO) solution of test compound into a microtiter plate (96-well format), the nutrient broth containing the fungal spores is added. The test plates are incubated at 24° C. and the inhibition of growth is measured photometrically 3 to 4 days after application. The following compounds at 20 ppm in the applied formulation give at least 80% disease control in this test when compared to untreated control under the same conditions, which show extensive disease development.

Phakopsora pachyrhizi = assay: Fungicidal activity against Phakopsora pachyrhizi / soybean / leaf disc preventative (Asian soybean rust); format: in vivo; details: foliar, 200 ppm in the applied formulation, soybean leaf disks, inoculated one day after application, assessed 12 to 14 days after application, compared to untreated, read-out: disease control
Procedure: Leaf disks or leaf segments of various plant species are cut from plants grown in a greenhouse. The cut leaf disks or segments are placed in multiwell plates (24-well format) onto water agar. The leaf disks are sprayed with a test solution before (preventative) or after (curative) inoculation. Compounds to be tested are prepared as DMSO solutions (max. 10 mg/mL) which are diluted to the appropriate concentration with 0.025% Tween20 just before spraying. The inoculated leaf disks or segments are incubated under defined conditions (temperature, relative humidity, light, etc.) according to the respective test system. A single evaluation of disease level is carried out 3 to 14 days after inoculation, depending on the pathosystem. Percent disease control relative to the untreated check leaf disks or segments is then calculated. Soybean leaf disks are placed on water agar in multiwell plates (24-well format) and sprayed with the formulated test compound diluted in water. One day after application leaf discs are inoculated by spraying a spore suspension on the lower leaf surface. After an incubation period in a climate cabinet of 24-36 hours in darkness at 20° C. and 75% rh leaf disc are kept at 20° C. with 12 hours light/day and 75% rh. The activity of a compound is assessed as percent disease control compared to untreated when an appropriate level of disease damage appears in untreated check leaf disks (12 to 14 days after application). The following compounds at 200 ppm in the applied formulation give at least 80% disease control in this test when compared to untreated control leaf disks under the same conditions, which show extensive disease development.

[3] = system: Puccinia recondita f. sp. tritici; assay: Fungicidal activity against Puccinia recondita f. sp. tritici / wheat / leaf disc curative (brown rust); format: in vivo; details: foliar, 200 ppm in the applied formulation, wheat leaf segments cv. Kanzler, applied 1 day after inoculation, assessed 6 to 8 days after application, compared to untreated, read-out: disease control
Procedure: Leaf disks or leaf segments of various plant species are cut from plants grown in a greenhouse. The cut leaf disks or segments are placed in multiwell plates (24-well format) onto water agar. The leaf disks are sprayed with a test solution before (preventative) or after (curative) inoculation. Compounds to be tested are prepared as DMSO solutions (max. 10 mg/mL) which are diluted to the appropriate concentration with 0.025% Tween20 just before spraying. The inoculated leaf disks or segments are incubated under defined conditions (temperature, relative humidity, light, etc.) according to the respective test system. A single evaluation of disease level is carried out 3 to 14 days after inoculation, depending on the pathosystem. Percent disease control relative to the untreated check leaf disks or segments is then calculated. Wheat leaf segments cv. Kanzler are placed on agar in multiwell plates (24-well format). The leaf segments are then inoculated with a spore suspension of the fungus. Plates were stored in darkness at 19° C. and 75% relative humidity. The formulated test compound diluted in water was applied 1 day after inoculation. The leaf segments were incubated at 19° C. and 75% relative humidity under a light regime of 12 hours light/12 hours darkness in a climate cabinet and the activity of a compound was assessed as percent disease control compared to untreated when an appropriate level of disease damage appears in untreated check leaf segments (6 to 8 days after application). The following compounds at 200 ppm in the applied formulation give at least 80% disease control in this test when compared to untreated control leaf disks under the same conditions, which show extensive disease development.

- melting point: 86 to 95 °C
SMILES: CNC(=S)c1ncnn1Cc1ccc(-c2noc(C(F)(F)F)n2)s1 [Compound 1.5, N-methyl-2-[[5-[5-(trifluoromethyl)-1,2,4-oxadiazol-3-yl]-2-thienyl]methyl]-1,2,4-triazole-3-carbothioamide]
- pest or weed control at 200 ppm [1]: ≥ 80%
- inhibition at 20 ppm [2]: ≥ 80%
- pest or weed control at 200 ppm (Phakopsora pachyrhizi): ≥ 80%
- pest or weed control at 200 ppm [3]: ≥ 80%

— patent US20210267204A1, “MICROBIOCIDAL OXADIAZOLE DERIVATIVES” (SYNGENTA CROP PROTECTION AG, priority 2018, published 2021)
